Data reported in ChEMBL document CHEMBL1201862, “PubChem BioAssay data set” (2004).
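These data come from cells grown in 96-well plates and exposed to compound for 48 hours at five concentrations. Abbreviation: GI50, concentration required for 50% inhibition of growth.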 Active and inactive are the calls of the source. Rule as the data show it: active = GI50 up to about 1.1 µM and inactive = higher.

Assays:
Assay in all cases: NCI-60 cell line screen, 48 h
[1] = tested on: SK-MEL-2
[2] = tested on: U-251
[3] = tested on: HT-29
[4] = tested on: SK-MEL-28
[5] = tested on: KM12
[6] = tested on: UACC-257
[7] = tested on: OVCAR-3
[8] = tested on: CCRF-CEM
[9] = tested on: Malme-3M
[10] = tested on: MOLT-4
[11] = tested on: OVCAR-8
[12] = tested on: HL-60
[13] = tested on: EKVX
[14] = tested on: NCI-H23
[15] = tested on: MCF7
[16] = tested on: COLO 205
[17] = tested on: HCC 2998

| SMILES | GI50 [1] | GI50 [2] | GI50 [3] | GI50 [4] | GI50 [5] | GI50 [6] | GI50 [7] | GI50 [8] | GI50 [9] | GI50 [10] | GI50 [11] | GI50 [12] | GI50 [13] | GI50 [14] | GI50 [15] | GI50 [16] | GI50 [17] |
| --- | --- | --- | --- | --- | --- | --- | --- | --- | --- | --- | --- | --- | --- | --- | --- | --- | --- |
| CN(C)CCCNC(=O)N/N=C/c1ccccc1 | > 100 µM (inactive) | > 100 µM (inactive) | > 100 µM (inactive) | > 100 µM (inactive) | > 100 µM (inactive) | > 100 µM (inactive) | > 100 µM (inactive) | > 100 µM (inactive) | > 100 µM (inactive) | > 100 µM (inactive) | > 100 µM (inactive) | > 100 µM (inactive) | – | – | – | – | – |
| O=C1CCCCC2N(C(c3ccccc3)c3ccccc3)CC[C@@]12c1ccccc1.O=C1CCCC[C@H]2N(C(c3ccccc3)c3ccccc3)CC[C@@]12c1ccccc1 (stereo partly drawn) | – | > 10 µM (inactive) | 4 µM (inactive) | > 10 µM (inactive) | > 10 µM (inactive) | 6.14 µM (inactive) | > 10 µM (inactive) | 6.12 µM (inactive) | – | 3.06 µM (inactive) | > 10 µM (inactive) | 2.87 µM (inactive) | 7.73 µM (inactive) | 4.8 µM (inactive) | – | – | – |
| c1ccc2c(c1)NCc1cc3ccccc3nc1O2 | > 100 µM (inactive) | – | 71.6 µM (inactive) | > 100 µM (inactive) | > 100 µM (inactive) | > 100 µM (inactive) | > 100 µM (inactive) | > 68.5 µM (inactive) | > 100 µM (inactive) | 83 µM (inactive) | > 100 µM (inactive) | 55.6 µM (inactive) | > 100 µM (inactive) | > 100 µM (inactive) | 16 µM (inactive) | > 100 µM (inactive) | > 100 µM (inactive) |
| O=C(O)c1ccc(Nc2c3ccccc3nc3ccccc23)cc1 | > 100 µM (inactive) | 51.6 µM (inactive) | 97.9 µM (inactive) | > 100 µM (inactive) | > 100 µM (inactive) | > 100 µM (inactive) | > 100 µM (inactive) | 26.9 µM (inactive) | 43.3 µM (inactive) | 23.1 µM (inactive) | 64 µM (inactive) | 47.9 µM (inactive) | > 100 µM (inactive) | > 72.3 µM (inactive) | 71.1 µM (inactive) | > 100 µM (inactive) | > 100 µM (inactive) |
| CC(=O)SCCC1c2[nH]c3ccccc3c2CCN1O (stereo not drawn) | > 100 µM (inactive) | > 100 µM (inactive) | > 100 µM (inactive) | > 100 µM (inactive) | 68.9 µM (inactive) | > 100 µM (inactive) | > 100 µM (inactive) | 31.8 µM (inactive) | > 100 µM (inactive) | 40.6 µM (inactive) | > 100 µM (inactive) | 36.6 µM (inactive) | > 100 µM (inactive) | > 100 µM (inactive) | – | > 100 µM (inactive) | 85.1 µM (inactive) |
| COc1ccc2[nH]c3c(C)c4ccncc4c(C)c3c2c1 | 1.86 µM (inactive) | 0.513 µM (active) | 0.212 µM (active) | 2.09 µM (inactive) | 0.152 µM (active) | 1.85 µM (inactive) | 0.402 µM (active) | 0.0982 µM (active) | 1.44 µM (inactive) | 0.0635 µM (active) | 0.111 µM (active) | 0.532 µM (active) | 1.01 µM (active) | 0.34 µM (active) | 0.359 µM (active) | 0.19 µM (active) | 1.92 µM (inactive) |
| CC(=O)/C(=C\c1ccccc1O)C(=O)Nc1ccccc1C | 18.9 µM (inactive) | 8.85 µM (inactive) | 16.9 µM (inactive) | 24.3 µM (inactive) | 17.2 µM (inactive) | 31.9 µM (inactive) | 25.7 µM (inactive) | 14.3 µM (inactive) | 17.5 µM (inactive) | 9.84 µM (inactive) | 31.7 µM (inactive) | 9.64 µM (inactive) | 36 µM (inactive) | 17.7 µM (inactive) | – | – | 15.7 µM (inactive) |
| C=CCC12CC(=O)C=C1CCC1(C2)OCCO1 (stereo not drawn) | > 100 µM (inactive) | > 100 µM (inactive) | – | > 100 µM (inactive) | > 100 µM (inactive) | > 100 µM (inactive) | > 100 µM (inactive) | > 100 µM (inactive) | > 100 µM (inactive) | > 100 µM (inactive) | – | > 100 µM (inactive) | – | – | – | > 100 µM (inactive) | > 100 µM (inactive) |
| Nc1ccccc1Sc1ccc(Cl)cc1 | 27.9 µM (inactive) | 16.2 µM (inactive) | 19.1 µM (inactive) | 28.9 µM (inactive) | 33.4 µM (inactive) | 23.2 µM (inactive) | 25.6 µM (inactive) | 17.9 µM (inactive) | 26.1 µM (inactive) | > 10 µM (inactive) | 37.5 µM (inactive) | 18.7 µM (inactive) | 30.1 µM (inactive) | 26.2 µM (inactive) | – | 21.1 µM (inactive) | 28.1 µM (inactive) |
